The text below walks through data of patent US20090093501A1, “Heterocyclic antiviral compounds” (Roche Palo Alto LLC, priority 2007, published 2009).

The target of one series is T1, CCR5 (Homo sapiens, UniProt P51681).
T1 construct: host or cells: CEM-NKr-CCR5-Luc cells, co-cultured with Hela-R5 cells expressing gp160 and HIV-1 Tat
Briefly: CCR5-mediated cell-cell fusion (CCF) assay. The series is classed as cell-based. Conditions: Hela-R5 cells co-cultured with CEM-NKr-CCR5-Luc cells, 24 hrs, luciferase readout. The method, then:
CCF assay was performed as described before (C. Ji, J. Zhang, N. Cammack and S. Sankuratri, J. Biomol. Screen. 2006 11(6):652-663). Hela-R5 cells (express gp160 from R5-tropic virus and HIV-1 Tat) were plated in 384 well white culture plates (BD Bioscience, Palo Alto, Calif.) at 7.5×10^3 cells per well in phenol red-free Dulbecco's Modified Eagle Medium (DMEM) supplemented with 10% FBS, 1× Pen-Strep, 300 μg/mL G418, 100 μg/mL hygromycin, and 1 μg/mL Doxycycline (Dox) (BD Bioscience, Palo Alto, Calif.), using Multimek (Beckman, Fullerton, Calif.) and incubated at 37° C. overnight to induce the expression of gp160. Ten μL diluted compounds in medium containing 5% DMSO were added to the cells, followed by the addition of CEM-NKr-CCR5-Luc (obtained from NIH AIDS Research & Reference Reagents Program) that expresses CD4 and CCR5 and carries a […] long terminal repeat (LTR)-driven luciferase reporter gene at 1.5×10^4 cells/15 μL/well and incubated for 24 hrs. At the end of co-culture, 15 μL of Steady-Glo luciferase substrate was added into each well, and the cultures were sealed and gently shaken for 45 min. The luciferase activity were measured for 10 sec per well as luminescence by using 16-channel TopCount NXT (PerkinElmer, Shelton, Conn.) with 10 min dark adaptation and the readout is count per second (CPS). For the drug interaction experiments, small molecule compounds or antibodies were serially diluted in serum-free and phenol red-free RPMI containing 5% DMSO (CalBiochem, La Jolla, Calif.) and 1× Pen-Strep5 μL each of the two diluted compound or mAb to be tested for drug-drug interactions were added to the Hela-R5 cells right before the addition of target cells. Representative results are compiled in TABLE II

T1 sequence (P51681 whole entry): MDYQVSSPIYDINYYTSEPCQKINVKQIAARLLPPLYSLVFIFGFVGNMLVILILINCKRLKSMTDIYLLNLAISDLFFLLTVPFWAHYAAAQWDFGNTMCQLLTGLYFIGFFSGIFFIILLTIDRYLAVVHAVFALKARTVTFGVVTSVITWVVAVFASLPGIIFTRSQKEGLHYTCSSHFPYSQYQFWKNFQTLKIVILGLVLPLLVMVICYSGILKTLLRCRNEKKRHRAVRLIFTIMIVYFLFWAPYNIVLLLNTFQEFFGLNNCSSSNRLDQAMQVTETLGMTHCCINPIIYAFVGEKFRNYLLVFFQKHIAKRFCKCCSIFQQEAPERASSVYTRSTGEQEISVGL

On to `CCCCC1C(=O)N(CC2CCOCC2)CCC12CCN(C1(C)CCN(C(=O)c3c(C)ncnc3C)CC1)CC2` (stereo not shown) [I-3, 1-Butyl-9-[1-(4,6-dimethyl-pyrimidine-5-carbonyl)-4-methyl-piperidin-4-yl]-3-(tetrahydro-pyran-4-ylmethyl)-3,9-diaza-spiro[5.5]undecan-2-one], for which half-maximal inhibition on CCR5 (IC50) required 9.5 nM.

Take `CCCCC1C(=O)N(CC2CCN(C(=O)OC)CC2)CCC12CCN(C1(C)CCN(C(=O)c3c(C)ncnc3C)CC1)CC2` (stereo not shown) [I-19, 4-{1-Butyl-9-[1-(4,6-dimethyl-pyrimidine-5-carbonyl)-4-methyl-piperidin-4-yl]-2-oxo-3,9-diaza-spiro[5.5]undec-3-ylmethyl}-piperidine-1-carboxylic acid methyl ester]: it took 7.8 nM to reach half-maximal inhibition at CCR5 (IC50). The IC50 values of the last two molecules are within 1.5-fold of each other. Take `CCCCC1CN(S(=O)(=O)C2CCN(C(C)=O)CC2)CCC12CCN(C1(C)CCN(C(=O)c3c(C)ncnc3C)CC1)CC2` (stereo not shown) [I-25]: the melting point (in general, the temperature, or range, at which the solid turns liquid) lay within 113 to 120 °C. Also, it took 9.8 nM to reach half-maximal inhibition against CCR5 (IC50).
